The inhibition is the percentage by which the read-out fell short of the control.

Results on 3 compounds are retold here after patent US6461997B1, “Triazole sulfones having herbicidal activity” (Monsanto Technology LLC, priority 1999, dated 2002).

In experiment [1] the test system is VERPE (creeping speedwell). As to the kind of experiment: Post-emergence herbicidal activity, cool season. The format is in vivo, Veronica persicaria. The settings on record: abraded plants sprayed; GR80 = lowest tested rate (300, 100, 30, 10 g/ha) with 80% or greater inhibition; approx. 14 days after treatment; 18/13° C. As to the method:
(§1) In another set of tests, the post-emergence activity of compounds of this invention was evaluated on the cool season species listed above. The following procedure was used.
(§2) A pre-prepared topsoil mixture (described above) was placed in a pot and compacted to a depth of 1.0 to 1.25 cm from the top of the pot. Seeds of each of several monocotyledonous and dicotyledonous annual plant species were placed on top of the soil. The seeds were covered with a mixture of 50% topsoil and 50% Rediearth™ in sufficient quantity to level-fill the pots. The pots were then placed on a greenhouse bench and subirrigated as needed.
(§3) When plants growing from the seeds had emerged and reached a suitable growth stage for post-emergence treatment, typically 9 to 14 days after planting, above-ground parts of the plants were subjected to a pre-treatment involving abrasion to create greater opportunity for foliar uptake of subsequently applied compounds. Abrasion was performed using garnet 200w particles applied with a Sears Craftsman hand-held sandblaster operated at approximately 850 kPa (50 psig) pressure. […]
(§4) After treatment the plants were placed in a greenhouse with an 18/13° C. day/night temperature regime and were subsequently watered as needed for growth. Approximately 14 days after treatment, the plants were observed and herbicidal efficacy recorded as percent inhibition by comparison with control plants. […]

Another experiment deals with KCHSC (kochia). As to the kind of experiment: Post-emergence herbicidal activity, cool season. Format: in vivo, Kochia scoparia. The conditions noted are these: abraded plants sprayed; GR80 = lowest tested rate (300, 100, 30, 10 g/ha) with 80% or greater inhibition; approx. 14 days after treatment; 18/13° C. As to the method:
as §1, §2, §3, §4

The next experiment deals with SEBEX. As to the kind of experiment: Pre-emergence herbicidal activity, warm season (selectivity test, Table 15). The format is in vivo. The conditions noted are these: pre-emergence application, read-out: Percent inhibition, weed SEBEX. As to the method: (§5) The pre-emergence tests were conducted by the following procedure. Topsoil was sieved to pass through a 1.27 cm screen. Fertilizer was added to the topsoil and the mixture was then sterilized by heating. The topsoil mixture was placed in a pot and compacted to a depth of 1.0 to 1.25 cm from the top of the pot. Seeds of each of several monocotyledonous and dicotyledonous annual plant species were placed on top of the soil. Additional soil was subsequently placed over the seeds to level-fill the pot. A known amount of each test compound dissolved or suspended in an appropriate organic solvent was diluted with a 50:50 mix of acetone and water and applied to the surface of the soil. After treatment the plants were placed in a greenhouse where they received 0.64 cm of overhead irrigation. All subsequent watering consisted of a light overhead mist and/or subirrigation as needed for germination and growth. Tables 5 and 6 below relate to warm season plant species which were placed after pre-emergence treatment in a greenhouse with a 30/21° C. day/night temperature regime. Tables 7 and 8 below relates to cool season plant species placed after pre-emergence treatment in a greenhouse or growth chamber with an 18/13° C. day/night temperature regime.
(§6) Approximately 14 days after planting and treating, the plants were observed and herbicidal efficacy recorded as percent inhibition by comparison with untreated plants.
Additional pre-emergence and PPI tests were conducted by the procedures described above, on warm and cool season weed species in the presence of crop species, to assess herbicidal selectivity. Crop species included in warm season tests were corn (Zea mays, ZEAMX), rice (Oryza sativa, ORYSA) and soybean (Glycine max, GLYMX). Crop species included in cool season tests were wheat (Triticum aestivum, TRZAW), barley (Hordeunm vulgare, HORVX) and oilseed rape (Brassica napus, BRSNS).
Tables 15 and 16 relate to pre-emergence and PPI tests respectively on warm season species. Table 17 relates to pre-emergence tests on cool season species.

In experiment [2] the test system is AEGCY (jointed goatgrass). As to the kind of experiment: Pre-emergence herbicidal activity, cool season. The format is in vivo, Aegilops cylindrica. The conditions noted are these: GR80 = lowest tested rate (300, 100, 30, 10 g/ha) with 80% or greater inhibition; approx. 14 days after treating; 18/13° C. On the procedure:
Tables 5 to 8 summarize results of tests conducted as described below to determine the pre-emergence herbicidal activity, in the form of a GR80 value, of illustrative compounds of this invention. […] Compounds of the invention were typically applied at rates of 300, 100, 30, and 10 g/ha. Where herbicidal activity was evident but 80% inhibition was not achieved at the highest rate tested, an asterisk (*) is shown in the following tables.
as §5, §6
The plant species usually regarded as weeds which were utilized in the tests are identified in the tables below according to the following legend, in which “d” indicates a dicotyledonous species and “m” a monocotyledonous species. All monocotyledonous species included in the tests herein are grasses.

A further experiment relates to SASKR (russian thistle). The experiment is described as follows: Post-emergence herbicidal activity, cool season. The conditions noted are these: abraded plants sprayed; GR80 = lowest tested rate (300, 100, 30, 10 g/ha) with 80% or greater inhibition; approx. 14 days after treatment; 18/13° C. The format is in vivo, Salsola kali. On the procedure: as §1, §2, §3, §4

For `CCN(CC)C(=O)n1cnc(S(=O)(=O)C(F)(F)Br)n1` [Example 1, 3-(bromodifluoromethylsulfonyl)-1-(N,N-diethylcarbamoyl)-1,2,4-triazole], in experiment [1], the “Post-emergence activity (GR80) VERPE” value stood at 300 g/ha. Further, in the experiment with KCHSC (kochia), the “Post-emergence activity (GR80) KCHSC” value worked out at 100 g/ha. Besides, in the experiment with SEBEX, the inhibition at 10 g/ha came out at 0%, the inhibition at 30 g/ha stood at 0%, the inhibition at 100 g/ha amounted to 0% and the inhibition at 300 g/ha was determined as 0%. The inhibition at 900 g/ha with SEBEX came out at 0%.

With `CCN(CC)C(=O)n1cnc(S(=O)(=O)C(F)(F)C(F)(F)Br)n1` [Example 4], in experiment [2], the “Pre-emergence activity (GR80) AEGCY” value is reported as “* (activity observed, at least at highest rate, but <80% inhibition)”.

As for `CCN(CC)C(=O)n1cnc(S(=O)(=O)C(F)F)n1` [Example 15, 1-(N,N-diethylcarbamoyl)-3-(difluoromethylsulfonyl)-1,2,4-triazole], in the experiment on KCHSC (kochia), the “Post-emergence activity (GR80) KCHSC” value came out at 100 g/ha. Also, the “Post-emergence activity (GR80) SASKR” value in the experiment on SASKR (russian thistle) worked out at 100 g/ha. Besides, in the experiment with SEBEX, the inhibition at 10 g/ha is 0%, the inhibition at 30 g/ha amounted to 0%, the inhibition at 100 g/ha came to 0% and the inhibition at 300 g/ha was determined as 0%. Besides, the inhibition at 900 g/ha in the experiment with SEBEX is 35%.
